# Square brackets hold non-standard residues; d marks the D form. Ends that are not written are not given here. Peptide text beside a SMILES is read from it.
# Experiments:
# Format in all cases: cell-based
# [1] = Cytotoxic effects on immune cells obtained from mouse bone marrow; conditions: mouse immune cells originating from bone marrow, read-out: LC50
# Method: (§1) The mouse immune cells are obtained from C57BL/6 or Balb/c mouse bone marrow. The peptides are incubated at 37° C., 5% CO2 in the presence of 500,000 immune cells in RPMI medium at varied concentrations for 2 hours. Peptide-free cells are used as the negative control and cells in the presence of DMSO (30%) are used as the positive control. After incubation, the cells are washed then labelled with Trypan blue so as to measure the cell viability by microscope counting. The LC50 is then calculated as being the concentration of DA2N, K12A and DANa peptides inducing the death of 50% of the immune cells.
# [2] = test system: Enterococcus faecalis CIP 103015; test: MIC/MBC (Example 10, MH medium); conditions: Table 5; E. faecalis CIP 103015
# Method: (§2) The MIC is determined using a growth inhibition test in liquid medium. The MIC is defined as being the lowest peptide concentration capable of inhibiting the bacterial strain tested, after incubation for 18 h at 37° C. The test was carried out in a sterile microtitration plate containing 96 wells. A series of increasing concentrations of each peptide (0.2 to 100 µM) was prepared beforehand in sterile MilliQ water. In each well, 10 µL of peptide was incubated with 90 µL of bacterial suspension (10^7 cfu/mL) in yeast extract-free LB medium. The microplate was incubated at 37° C. for 18 h. The bacterial growth was evaluated by measuring the OD at 620 nm using a plate reader.
# (§3) The negative growth inhibition control was obtained by replacing the solution containing the peptide by sterile MilliQ water. The positive control suitable for completely inhibiting the growth of the bacterial strains was obtained by replacing the solution containing the peptide by 10 µL of formaldehyde.
# (§4) The results are interpreted by calculating the percentage of bacterial growth in each well according to the formula:
# (§5) %Growth = (OD well - OD of T0)/(OD of T100-OD of T0)*100 where
# (§6) • OD of T100 = OD of growth control (bacterial suspension free from sample under test, 100% growth), • OD of T0 = OD of sterility control (culture medium + bacterium + 10 µL formaldehyde, 0% growth) and • OD well = OD of well for which it is sought to calculate the growth percentage (bacterial suspension + peptide under test).
# (§7) The MBC is defined as being the minimum peptide concentration leaving no surviving bacteria of the inoculum after incubation at 37° C. for 24 hours. This test consists of smearing the contents of the well wherein the peptide has inhibited bacterial growth on a Petri dish (LB agar), followed by incubation for 24 h at 37° C.
# (§8) A 10 mL preculture in Muller-Hinton (MH) medium is prepared by inoculating a colony of the bacterial strain of interest. The preculture is incubated at 37° C. under stirring overnight. The culture is subcultured to 1:100 under the same conditions. The culture concentration is evaluated by measuring the turbidity at 600 nm (OD600 nm 1.0 = 5 × 10^8 CFU/mL for E. coli (Gram-negative bacteria) and 1.5 × 10^8 CFU/mL for S. aureus (Gram-positive bacteria). Once the exponential growth phase (OD600 nm = 0.3 - 0.7) has been achieved, the cultures are diluted in MH medium so as to obtain 10^6 CFU/mL (final inoculum concentration).
# (§9) The MIC and the MBC were determined as per the protocol described in part 2.1 of Example 2.
# [3] = test system: Escherichia coli ATCC 8739; test: MIC/MBC (Example 10, MH medium); conditions: Table 5; E. coli ATCC 8739
# Method: as §2, §3, §4, §5, §6, §7, §8, §9
# [4] = test system: Pseudomonas aeruginosa ATCC 9027; test: MIC/MBC (Example 10, MH medium); conditions: Table 5; P. aeruginosa ATCC 9027
# Method: as §2, §3, §4, §5, §6, §7, §8, §9
# [5] = test system: Staphylococcus aureus ATCC 6538; test: MIC/MBC (Example 10, MH medium); conditions: Table 5; S. aureus ATCC 6538
# Method: as §2, §3, §4, §5, §6, §7, §8, §9
# [6] = test system: immune cells obtained from mouse bone marrow; test: Cytotoxic effects on immune cells obtained from mouse bone marrow; conditions: 12.5 µM; 2 hours
# Method: as §1
Molecule,CC50 at 2 hours [1] [µM],MBC [2] [µM],MIC [2] [µM],MBC [3] [µM],MIC [3] [µM],MBC [4] [µM],MIC [4] [µM],MBC [5] [µM],MIC [5] [µM],death of immune cells [6]
ALWKTLLKKVGKVAGKAVLNAVTNMANQN-NH2 [DA2Na],3.75,3.1,3.1,0.8,0.8,1.6,1.6,1.6,0.8,–
Gramicidin [reference compound],–,0.8,0.8,>100,>100,>100,>100,>50,>50,–
"CSCC[C@@H](NC(=O)[C@@H](CC(N)=O)NC(=O)[C@H](NC(=O)[C@H](NC(=O)[C@@H](C)NC(=O)[C@@H](CC(N)=O)NC(=O)[C@@H](CC(C)C)NC(=O)[C@H](NC(=O)[C@@H](C)NC(=O)[C@@H](CCCCN)NC(=O)CNC(=O)[C@@H](C)NC(=O)[C@H](NC(=O)[C@@H](CCCCN)NC(=O)CNC(=O)[C@H](NC(=O)[C@@H](CCCCN)NC(=O)[C@@H](CCCCN)NC(=O)[C@@H](CC(C)C)NC(=O)[C@@H](CC(C)C)NC(=O)[C@H](NC(=O)[C@@H](CCCCN)NC(=O)[C@@H](Cc1c[nH]c2ccccc12)NC(=O)[C@@H](CC(C)C)NC(=O)[C@@H](C)N)[C@H](C)O)C(C)C)C(C)C)C(C)C)C(C)C)[C@H](C)O)C(=O)N[C@H](C)C(=O)N[C@H](CC(N)=O)C(=O)N[C@H](CCC(N)=O)C(=O)N[C@H](CC(N)=O)C(=O)N[C@H](CCC(=O)O)C(=O)N[C@H](CCC(N)=O)C(=O)O [DA2NEQ (D), dAdLdWdKdTdLdLdKdKdVdGdKdVdAdGdKdAdVdLdNdAdVdTdNdMdAdNdQdNdEdQ] (H-[dA][dL][dW][dK][dT][dL][dL][dK][dK][dV]G[dK][dV][dA]G[dK][dA][dV][dL][dN][dA][dV][dT][dN][dM][dA][dN][dQ][dN][dE][dQ]-OH; N-terminus and C-terminus assumed)",–,12.5,12.5,0.8,0.8,3.1,1.6,1.6,1.6,–
ALWKTLLKKVGAVAGKAVLNAVTNMANQN [K12A],6.5,12.5,12.5,1.6,1.6,6.3,6.3,6.3,3.1,–
"CSCC[C@@H](NC(=O)[C@@H](CC(N)=O)NC(=O)[C@H](NC(=O)[C@H](NC(=O)[C@@H](C)NC(=O)[C@@H](CC(N)=O)NC(=O)[C@@H](CC(C)C)NC(=O)[C@H](NC(=O)[C@@H](C)NC(=O)[C@@H](CCCCN)NC(=O)CNC(=O)[C@@H](C)NC(=O)[C@H](NC(=O)[C@@H](CCCCN)NC(=O)CNC(=O)[C@H](NC(=O)[C@@H](CCCCN)NC(=O)[C@@H](CCCCN)NC(=O)[C@@H](CC(C)C)NC(=O)[C@@H](CC(C)C)NC(=O)[C@H](NC(=O)[C@@H](CCCCN)NC(=O)[C@@H](Cc1c[nH]c2ccccc12)NC(=O)[C@@H](CC(C)C)NC(=O)[C@@H](C)N)[C@H](C)O)C(C)C)C(C)C)C(C)C)C(C)C)[C@H](C)O)C(=O)N[C@H](C)C(=O)N[C@H](CC(N)=O)C(=O)N[C@H](CCC(N)=O)C(=O)N[C@H](CC(N)=O)C(=O)O [DA2N (D), dAdLdWdKdTdLdLdKddKdVdGdKdVdAdGdKdAdVdLdNdAdVdTdNdMdAdNdQdN] (H-[dA][dL][dW][dK][dT][dL][dL][dK][dK][dV]G[dK][dV][dA]G[dK][dA][dV][dL][dN][dA][dV][dT][dN][dM][dA][dN][dQ][dN]-OH; N-terminus and C-terminus assumed)",–,3.1,3.1,0.8,0.4,0.8,0.8,0.8,0.8,induce the death of immune cells at a concentration of 12.5 µM with a comparable efficacy to DA2N
ALWKTLLKKVGPVAGKAVLNAVTNMANQN [K12P],–,>50,>50,6.3,6.3,12.5,12.5,6.3,6.3,–
ALWKTLLKKVGKAAGKAVLNAVTNMANQN [V13A],–,50,50,1.6,1.6,6.3,6.3,12.5,6.3,–
ALWKTLAKKVGKVAGKAVLNAVTNMANQN [L7A],–,6.3,6.3,0.8,0.8,1.6,1.6,3.1,3.1,–
ALWKTLLKKVGKVAGKAVLNAVTNAANQN [M25A],–,12.5,12.5,0.8,0.8,3.1,3.1,3.1,3.1,–
ALWKTLLKKVGKVKGKAVLNAVTNMANQN [A14K],–,>50,>50,1.6,1.6,12.5,12.5,50,25,–
ALWDTLLKKVGKVAGKAVLNAVTNMANQN [K4D],–,50,50,12.5,12.5,25,25,12.5,12.5,–
ALWKTLLKKVGKVAGKAVLNAVTNMANQNE-OH [DA2NE],–,50,12.5,1.6,0.8,3.1,3.1,12.5,3.1,induce the death of immune cells at a concentration of 12.5 µM with a comparable efficacy to DA2N
ALWKTLLKKVGKVDGKAVLNAVTNMANQN [A14D],–,>50,>50,6.3,6.3,>50,50,>50,>50,–
